In US8217048B2, “Inhibitors of serine proteases, particularly HCV NS3-NS4A protease” (Vertex Pharmaceuticals Incorporated, priority 2003, dated 2012):
Where “and” joins values, the source holds several entries; their conditions need not be identical. Equal entries are not always repeated.

What was measured:
HCV NS3-NS4A protease = biological target: T1, HCV NS3-NS4A protease (Hepatitis C virus genotype 1a, UniProt P27958); test: HCV Ki Assay (enzyme, Example 5); format: biochemical; conditions: Ki values, tested according to Example 5 (enzyme); 5AB substrate, tNS3 with KK4A
T1 construct: The buffer, KK4A, DTT, and tNS3 were combined
T1 sequence (P27958 1658-1711): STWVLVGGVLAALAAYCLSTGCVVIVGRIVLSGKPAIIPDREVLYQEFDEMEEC
T1 sequence (P27958 1027-1208): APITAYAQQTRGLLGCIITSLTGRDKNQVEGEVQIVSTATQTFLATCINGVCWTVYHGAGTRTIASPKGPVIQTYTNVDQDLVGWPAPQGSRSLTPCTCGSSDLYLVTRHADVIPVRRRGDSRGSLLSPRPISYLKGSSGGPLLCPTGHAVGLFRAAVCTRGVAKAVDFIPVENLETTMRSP
Procedure: HPLC Microbore Method for Separation of 5AB Substrate and Products
NH2-Glu-Asp-Val-Val-(alpha)Abu-Cys-Ser-Met-Ser-Tyr-COOH
A stock solution of 20 mM 5AB (or concentration of your choice) was made in DMSO w/0.2M DTT. This was stored in aliquots at −20 C.
Buffer: 50 mM HEPES, pH 7.8; 20% glycerol; 100 mM NaCl
Total assay volume was 100 μL
The buffer, KK4A, DTT, and tNS3 were combined; distributed 78 μL each into wells of 96 well plate. This was incubated at 30 C for ˜5-10 min.
2.5 μL of appropriate concentration of test compound was dissolved in DMSO (DMSO only for control) and added to each well. This was incubated at room temperature for 15 min.
Initiated reaction by addition of 20 μL of 250 μM 5AB substrate (25 μM concentration is equivalent or slightly lower than the Km for 5AB).
Incubated for 20 min at 30 C.
Terminated reaction by addition of 25 μL of 10% TFA
Transferred 120 μL aliquots to HPLC vials
Separated SMSY product from substrate and KK4A by the following method:
Microbore Separation Method:
Instrumentation: Agilent 1100
Column thermostated chamber G1316A
Diode array detector G1315A
Solvent A=HPLC grade water+0.1% TFA
Solvent B=HPLC grade acetonitrile+0.1% TFA
Stop time: 17 min Post-run time: 10 min.

[1] = test system: Cells containing hepatitis C virus (HCV) replicon; test: HCV Replicon Cell Assay (Example 4); format: cell-based; conditions: 48 h, tested according to Example 4 (cell), 50% inhibition of HCV RNA level, 48-hour incubation
Procedure: HCV Replicon Cell Assay Protocol
Cells containing hepatitis C virus (HCV) replicon were maintained in DMEM containing 10% fetal bovine serum (FBS), 0.25 mg per ml of G418, with appropriate supplements (media A).
On day 1, replicon cell monolayer was treated with a trypsin:EDTA mixture, removed, and then media A was diluted into a final concentration of 100,000 cells per ml wit. 10,000 cells in 100 ul were plated into each well of a 96-well tissue culture plate, and cultured overnight in a tissue culture incubator at 37° C.
On day 2, compounds (in 100% DMSO) were serially diluted into DMEM containing 2% FBS, 0.5% DMSO, with appropriate supplements (media B). The final concentration of DMSO was maintained at 0.5% throughout the dilution series.
Media on the replicon cell monolayer was removed, and then media B containing various concentrations of compounds was added. Media B without any compound was added to other wells as no compound controls.
Cells were incubated with compound or 0.5% DMSO in media B for 48 hours in a tissue culture incubator at 37° C. At the end of the 48-hour incubation, the media was removed, and the replicon cell monolayer was washed once with PBS and stored at −80° C. prior to RNA extraction.
Culture plates with treated replicon cell monolayers were thawed, and a fixed amount of another RNA virus, such as Bovine Viral Diarrhea Virus (BVDV) was added to cells in each well, RNA extraction reagents (such as reagents from RNeasy kits) were added to the cells immediately to avoid degradation of RNA. Total RNA was extracted according the instruction of manufacturer with modification to improve extraction efficiency and consistency. Finally, total cellular RNA, including HCV replicon RNA, was eluted and stored at −80° C. until further processing.
A Taqman real-time RT-PCR quantification assay was set up with two sets of specific primers and probe. One was for HCV and the other was for BVDV. Total RNA extractants from treated HCV replicon cells was added to the PCR reactions for quantification of both HCV and BVDV RNA in the same PCR well. Experimental failure was flagged and rejected based on the level of BVDV RNA in each well. The level of HCV RNA in each well was calculated according to a standard curve run in the same PCR plate. The percentage of inhibition or decrease of HCV RNA level due to compound treatment was calculated using the DMSO or no compound control as 0% of inhibition. The IC50 (concentration at which 50% inhibition of HCV RNA level is observed) was calculated from the titration curve of any given compound.

| Structure (SMILES) | Ki (HCV NS3-NS4A protease) | IC50 [1] [nM] |
| --- | --- | --- |
| CCC[C@H](NC(=O)[C@@H]1C[C@@H](Oc2ccc(C(=O)OC)cc2)CN1C(=O)[C@@H](NC(=O)[C@@H](NC(=O)c1cnccn1)C1CCCCC1)C(C)(C)C)C(=O)C(=O)NC1CC1 [Compound 52] | < 100 nM | – |
| CCC[C@H](NC(=O)[C@@H]1C[C@@H](Oc2cccc3ccccc23)CN1C(=O)[C@@H](NC(=O)[C@@H](NC(=O)c1cnccn1)C1CCCCC1)C(C)(C)C)C(=O)C(=O)NC1CC1 [Compound 36] | < 100 nM | < 500 |
| CCC[C@H](NC(=O)[C@@H]1C[C@@H](Oc2ccc(C(=O)N3CCN(C(=O)OCc4ccccc4)CC3)cc2)CN1C(=O)[C@@H](NC(=O)[C@@H](NC(=O)c1cnccn1)C1CCCCC1)C(C)(C)C)C(=O)C(=O)NC1CC1 [Compound 70] | 100 to 300 nM | 500 to 1000 |
| CCC[C@H](NC(=O)C1C[C@@H](Oc2ccccc2F)CN1C(=O)[C@@H](NC(=O)[C@@H](NC(=O)c1cnccn1)C1CCCCC1)C(C)(C)C)C(=O)C(=O)NC1CC1 (stereo partly drawn) [Compound 4] | 100 to 300 nM | 500 to 1000 |
| CCC[C@H](NC(=O)[C@@H]1C[C@@H](Oc2cccc(S(=O)(=O)NC)c2)CN1C(=O)[C@@H](NC(=O)[C@@H](NC(=O)c1cnccn1)C1CCCCC1)C(C)(C)C)C(=O)C(=O)NC1CC1 [Compound 47] | > 300 nM | < 500 |
| CCC[C@H](NC(=O)[C@@H]1C[C@@H](Oc2ccc(S(=O)(=O)NC)cc2)CN1C(=O)[C@@H](NC(=O)[C@@H](NC(=O)c1cnccn1)C1CCCCC1)C(C)(C)C)C(=O)C(=O)NC1CC1 [Compound 48] | 100 to 300 nM | < 500 |
| CCCC(NC(=O)[C@H]1C[C@H](Oc2ncccc2[N+](=O)[O-])CN1C(=O)C(NC(=O)C(NC(=O)c1cnccn1)C1CCCCC1)C(C)(C)C)C(=O)C(=O)NC1CC1 (stereo partly drawn) [Compound 33] | 100 to 300 nM | – |
| CCC[C@H](NC(=O)[C@@H]1C[C@@H](Oc2cccc(-c3ccccc3)c2)CN1C(=O)[C@@H](NC(=O)[C@@H](NC(=O)c1cnccn1)C1CCCCC1)C(C)(C)C)C(=O)C(=O)NC1CC1 [Compound 15] | < 100 nM | < 500 |
| CCC[C@H](NC(=O)[C@@H]1C[C@@H](Oc2ccc(F)c(F)c2)CN1C(=O)[C@@H](NC(=O)[C@@H](NC(=O)c1cnccn1)C1CCCCC1)C(C)(C)C)C(=O)C(=O)NC1CC1 [Compound 54] | < 100 nM | < 500 |
| CCC[C@H](NC(=O)[C@@H]1C[C@@H](Oc2ccc(Cl)cn2)CN1C(=O)[C@@H](NC(=O)[C@@H](NC(=O)c1cnccn1)C1CCCCC1)C(C)(C)C)C(=O)C(=O)NC1CC1 [Compound 59, Pyrazine-2-carboxylic acid ({1-[4-(5-chloro-pyridin-2-yloxy)-2-(1-cyclopropylaminooxalyl-butylcarbamoyl)-pyrrolidine-1-carbonyl]-2,2-dimethyl-propylcarbamoyl}-cyclohexyl-methyl)-amide] | < 100 nM | < 500 |
| CCC[C@H](NC(=O)[C@@H]1C[C@@H](Oc2cccc(OC(F)(F)F)c2)CN1C(=O)[C@@H](NC(=O)[C@@H](NC(=O)c1cnccn1)C1CCCCC1)C(C)(C)C)C(=O)C(=O)NC1CC1 [Compound 16] | 100 to 300 nM | 500 to 1000 |
| CCCC(NC(=O)[C@@H]1C[C@@H](Oc2ccccc2)CN1C(=O)[C@@H](NC(=O)[C@@H](NC(=O)c1cnccn1)C1CCCCC1)C(C)(C)C)C(=O)C(=O)NC1CC1 (stereo partly drawn) [Compound 34] | 100 to 300 nM | < 500 |
| CCC[C@H](NC(=O)[C@@H]1C[C@@H](Oc2ccc(Cl)cc2)CN1C(=O)[C@@H](NC(=O)[C@@H](NC(=O)c1cnccn1)C1CCCCC1)C(C)(C)C)C(=O)C(=O)NC1CC1 [Compound 56] | < 100 nM | < 500 |
| CCC[C@H](NC(=O)[C@@H]1C[C@@H](Oc2cccc(Cl)c2)CN1C(=O)[C@@H](NC(=O)[C@@H](NC(=O)c1cnccn1)C1CCCCC1)C(C)(C)C)C(=O)C(=O)NC1CC1 [Compound 66] | 100 to 300 nM | < 500 |
| CCC[C@H](NC(=O)[C@@H]1C[C@@H](Oc2ccccc2-c2ccccc2)CN1C(=O)[C@@H](NC(=O)[C@@H](NC(=O)c1cnccn1)C1CCCCC1)C(C)(C)C)C(=O)C(=O)NC1CC1 [Compound 17] | > 300 nM | – |
| CCCC(NC(=O)[C@H]1C[C@H](Oc2ncncc2F)CN1C(=O)C(NC(=O)C(NC(=O)c1cnccn1)C1CCCCC1)C(C)(C)C)C(=O)C(=O)NC1CC1 (stereo partly drawn) [Compound 32] | < 100 nM | – |
| CCC[C@H](NC(=O)[C@@H]1C[C@@H](Oc2cccc(Cl)n2)CN1C(=O)[C@@H](NC(=O)[C@@H](NC(=O)c1cnccn1)C1CCCCC1)C(C)(C)C)C(=O)C(=O)NC1CC1 [Compound 25] | 100 to 300 nM | – |
| CCC[C@H](NC(=O)[C@@H]1C[C@@H](Oc2cccc(OC)c2)CN1C(=O)[C@@H](NC(=O)[C@@H](NC(=O)c1cnccn1)C1CCCCC1)C(C)(C)C)C(=O)C(=O)NC1CC1 [Compound 21] | > 300 nM | – |
| CCCC(NC(=O)[C@H]1C[C@H](Oc2nccc(C(F)(F)F)n2)CN1C(=O)C(NC(=O)C(NC(=O)c1cnccn1)C1CCCCC1)C(C)(C)C)C(=O)C(=O)NC1CC1 (stereo partly drawn) [Compound 74] | > 300 nM | – |
| CCCC(NC(=O)[C@H]1C[C@H](Oc2ccc(C(F)(F)F)cn2)CN1C(=O)C(NC(=O)C(NC(=O)c1cnccn1)C1CCCCC1)C(C)(C)C)C(=O)C(=O)NC1CC1 (stereo partly drawn) [Compound 27] | > 300 nM | – |
| C=CCCC(=O)C(=O)[C@H](CCC)NC(=O)[C@@H]1C[C@@H](Oc2ccc(Cl)cn2)CN1C(=O)[C@@H](NC(=O)[C@@H](NC(=O)c1cnccn1)C1CCCCC1)C(C)(C)C [Compound 76] | 100 to 300 nM and > 300 nM | – |
| CCC[C@H](NC(=O)C1C[C@@H](Oc2ccccc2OC(F)(F)F)CN1C(=O)[C@@H](NC(=O)[C@@H](NC(=O)c1cnccn1)C1CCCCC1)C(C)(C)C)C(=O)C(=O)NC1CC1 (stereo partly drawn) [Compound 9] | > 300 nM | – |
| CCCC(NC(=O)[C@H]1C[C@H](Oc2nccc(-c3ccccc3)c2C#N)CN1C(=O)C(NC(=O)C(NC(=O)c1cnccn1)C1CCCCC1)C(C)(C)C)C(=O)C(=O)NC1CC1 (stereo partly drawn) [Compound 31] | 100 to 300 nM | – |
| CCC[C@H](NC(=O)[C@@H]1C[C@@H](Oc2ccc(Cl)cn2)CN1C(=O)[C@@H](NC(=O)[C@@H](NC(=O)c1cnccn1)C1CCCCC1)C(C)(C)C)C(=O)C(=O)CC(C)C [Compound 75] | > 300 nM | – |
| CCC[C@H](NC(=O)[C@@H]1C[C@@H](Oc2ccc(Cl)cn2)CN1C(=O)[C@@H](NC(=O)[C@@H](NC(=O)[C@H](C)NC(=O)OC)C1CCCCC1)C(C)(C)C)C(=O)C(=O)NC1CC1 [Compound 69] | < 100 nM | – |
| CCCC(NC(=O)[C@H]1C[C@H](Oc2ccc(-c3ccccc3)nn2)CN1C(=O)C(NC(=O)C(NC(=O)c1cnccn1)C1CCCCC1)C(C)(C)C)C(=O)C(=O)NC1CC1 (stereo partly drawn) [Compound 28] | > 300 nM | – |
| CCCC(NC(=O)[C@H]1C[C@H](Oc2cc(C(F)(F)F)ncn2)CN1C(=O)C(NC(=O)C(NC(=O)c1cnccn1)C1CCCCC1)C(C)(C)C)C(=O)C(=O)NC1CC1 (stereo partly drawn) [Compound 30] | 100 to 300 nM | – |
| CCC[C@H](NC(=O)[C@@H]1C[C@@H](Oc2cccc(OC)c2OC)CN1C(=O)[C@@H](NC(=O)[C@@H](NC(=O)c1cnccn1)C1CCCCC1)C(C)(C)C)C(=O)C(=O)NC1CC1 [Compound 23] | 100 to 300 nM | – |
| CCC[C@H](NC(=O)[C@@H]1C[C@@H](Oc2cccc3ccccc23)CN1C(=O)[C@@H](NC(=O)[C@@H](NC(=O)c1ncc[nH]1)C1CCCCC1)C(C)(C)C)C(=O)C(=O)NC1CC1 [Compound 37] | < 100 nM | – |
| CCCC(NC(=O)[C@H]1C[C@H](Oc2ccnc(C(F)(F)F)n2)CN1C(=O)C(NC(=O)C(NC(=O)c1cnccn1)C1CCCCC1)C(C)(C)C)C(=O)C(=O)NC1CC1 (stereo partly drawn) [Compound 29] | > 300 nM | – |
